Data taken from patent US6369003B1, “Process and composition for soil improvement by reducing microbially formed ethylene in the soil” (BASF Aktiengesellschaft, priority 1994, dated 2002).
Read-outs that look alike come from different tables or passages of the source.

Experiments:
[1] = tested on: Soybean plants (Delta Pine 415); experiment: Soybeans test 3c: root nodules and total N, greenhouse; assay type: in vivo, Glycine max; conditions: for Nodules: untreated 46
Procedure: In these tests various types of non-sterile soils were used. The cultivation of the plants was carried out under greenhouse or climatic chamber conditions. The active compounds according to the invention were applied uniformly distributed over the soil surface in an aqueous preparation after the emergence of the respective test plants. The supply of water for the plants was carrried out using the same technique, always paying attention to uniform moistness of the soil. In the case of the cultivation of legumes, defined amounts of species-specific Rhizobia were admixed to the soil. In some cases inoculation was also carried out by seed treatment.
a) Soybean plants (Delta Pine 415) were cultivated under greenhouse conditions in low N Limburgerhof soil in plastic pots (500 ml) and watered from above as required. A few days after emergence the plants were thinned out to 5 plants per pot.
In 8 pots in each case per test member an aqueous active compound solution of 2.3.1.3 was applied by watering. 16 pots remained untreated in each case.
c) Test procedure as in 3 a)

pea variety Sparkle = conditions: nodule formation reduced by provision of light in the root area; Lee and La Rue; cited from earlier work
[2] = tested on: pea varieties Sparkle and Rondo; conditions: Lee and La Rue, cited from earlier work
mutant EZ (Sym5) of peas = conditions: severely reduced nodule formation of the mutant; Fearn and La Rue 1991; cited from earlier work
parent strain Sparkle = conditions: Fearn and La Rue 1991; cited from earlier work
white sweetclover = conditions: 0.07 μl/l of ethylene gas/l of air; Lee and La Rue; cited from earlier work
soybean plants = conditions: even at distinctly higher ethylene administration; Lee and La Rue; cited from earlier work
[3] = 0.030 mg of a.s./pot; procedure as in 3 a)
[4] = 0.300 mg of a.s./pot; procedure as in 3 a)

| SMILES | Total N (shoots + root) [1, 3] | Nodules [1, 3] [number/pot] | Total N (shoots + root) [1, 4] | Nodules [1, 4] [number/pot] | nodule formation (mutant EZ (Sym5) of peas) | nodulation (parent strain Sparkle) | other results |
| --- | --- | --- | --- | --- | --- | --- | --- |
| CC(C)OCOC(=O)CON=C1CCCCC1 [active compound 2.3.1.5] | 104 % of control | 70 | 107 % of control | 61 |  |  |  |
| O=S(=O)([O-])[O-].[Ag+].[Ag+] [Ag2SO4] |  |  |  |  | partially restored | not affected | nodule formation (pea variety Sparkle): reverse the reduced nodule formation by light; nodule formation ([2]; peas (Sparkle), in the presence of ethylene): normal nodule formation could be restored |
| CCCCCCOC(=O)CON=C(C)C [active compound 2.3.1.4] | 103 % of control | 55 | 110 % of control | 66 |  |  |  |
| C=C [ethylene] |  |  |  |  |  |  | nodule formation (white sweetclover): severe reduction in nodule formation; nodule formation ([2]; 0.07 μl/l of ethylene gas/l of air): severe reduction in nodule formation; nodulation (soybean plants): no significant effect on nodulation |
| O=[N+]([O-])[O-].O=[N+]([O-])[O-].[Co+2] [Co(NO3)2] |  |  |  |  | partially restored | not affected |  |
